Values of other authors as cited in PubChem BioAssay AID1259409 (Chemical Carcinogenesis Research Information System (CCRIS), 2018).

Tested on: rodent chemically induced tumor inhibition, incidence and multiplicity
Assay: CCRIS tumor inhibitor studies

With S=C=NCCCCCCc1ccccc1 as the compound, how does the “tumour outcome (control, treated, inhibition, significance)” value (Carcinogen: 4-(METHYLNITROSAMINO)-1-(3-PYRIDYL)-1-BUTANONE, 64091-91-4, Dose [Inhibitor]: 0, 1 UMOL/G DIET FOR DURATION OF STUDY BEGINNING 1 WK PRIOR TO CARCINOGEN TREATMENT (STUDY DURATION: 112 WK), Route [Inhibitor]: ORAL, Species: RAT, Strain/Sex: F344/MALE, Target Tissue: Type of Lesion: PANCREAS: ACINAR ADENOMA, Dose [Carcinogen]: 2 PPM IN DRINKING WATER FOR 111 WK, Promoter: NONE USED) read?
The value was 1/52 (2%), 6/50 (12%), -500%, p=0.04.

And the “tumour outcome (control, treated, inhibition, significance)” value (Carcinogen: 4-(METHYLNITROSAMINO)-1-(3-PYRIDYL)-1-BUTANONE, 64091-91-4, Dose [Inhibitor]: 0, 1 UMOL/G DIET FOR DURATION OF STUDY BEGINNING 1 WK PRIOR TO CARCINOGEN TREATMENT (STUDY DURATION: 112 WK), Route [Inhibitor]: ORAL, Species: RAT, Strain/Sex: F344/MALE, Target Tissue: Type of Lesion: PANCREAS: MALIGNANT TUMOR, Dose [Carcinogen]: 2 PPM IN DRINKING WATER FOR 111 WK, Promoter: NONE USED)?
The value was 4/52 (8%), 1/50 (2%), 75%, not significant.

And the “tumour outcome (control, treated, inhibition, significance)” value (Carcinogen: 4-(METHYLNITROSAMINO)-1-(3-PYRIDYL)-1-BUTANONE, 64091-91-4, Dose [Inhibitor]: 0, 5 UMOL IN 0.1 ML CORN OIL ONCE 2 HR PRIOR TO CARCINOGEN DOSE (STUDY DURATION: 16 WK), Route [Inhibitor]: GAVAGE, Species: MOUSE, Strain/Sex: STRAIN-A/FEMALE, Target Tissue: Type of Lesion: LUNG: ADENOMA, Dose [Carcinogen]: 10 UMOL IN 0.1 ML SALINE ONCE, Promoter: NONE USED)?
Its value is 100%, 25%, 75%, p<0.01.

And the “tumour outcome (control, treated, inhibition, significance)” value (Carcinogen: 4-(METHYLNITROSAMINO)-1-(3-PYRIDYL)-1-BUTANONE, 64091-91-4, Dose [Inhibitor]: 0, 438 PPM IN DIET FOR 22 WK BEGINNING 1 WK PRIOR TO CARCINOGEN DOSE (STUDY DURATION: 98 WK), Route [Inhibitor]: ORAL, Species: RAT, Strain/Sex: F344/MALE, Target Tissue: Type of Lesion: NASAL CAVITY: TUMOR, Dose [Carcinogen]: 1.5 MG/KG BW 3/WK FOR 20 WK, Promoter: NONE USED)?
Its value is 28/36 (78%), 27/36 (75%), 4%, not significant.

What about the “tumour outcome (control, treated, inhibition, significance)” value (Carcinogen: 4-(METHYLNITROSAMINO)-1-(3-PYRIDYL)-1-BUTANONE, 64091-91-4, Dose [Inhibitor]: 0, 438 PPM IN DIET FOR 22 WK BEGINNING 1 WK PRIOR TO CARCINOGEN TREATMENT (STUDY DURATION: 98 WK), Route [Inhibitor]: ORAL, Species: RAT, Strain/Sex: F344/MALE, Target Tissue: Type of Lesion: LUNG: TUMOR, Dose [Carcinogen]: 1.5 MG/KG BW 3/WK FOR 20 WK, Promoter: NONE USED) of the same compound?
Its value is 22/33 (67%), 7/36 (19%), 72%, p<0.01.

What about the “tumour outcome (control, treated, inhibition, significance)” value (Carcinogen: 4-(METHYLNITROSAMINO)-1-(3-PYRIDYL)-1-BUTANONE, 64091-91-4, Dose [Inhibitor]: 0, 876 PPM IN DIET FOR 22 WK BEGINNING 1 WK PRIOR TO CARCINOGEN TREATMENT (STUDY DURATION: 98 WK), Route [Inhibitor]: ORAL, Species: RAT, Strain/Sex: F344/MALE, Target Tissue: Type of Lesion: LUNG: TUMOR, Dose [Carcinogen]: 1.5 MG/KG BW 3/WK FOR 20 WK, Promoter: NONE USED) of the same compound?
The value was 22/33 (67%), 8/34 (24%), 64%, p<0.01.

What about the “tumour outcome (control, treated, inhibition, significance)” value (Carcinogen: 4-(METHYLNITROSAMINO)-1-(3-PYRIDYL)-1-BUTANONE, 64091-91-4, Dose [Inhibitor]: 0, 876 PPM IN DIET FOR 22 WK BEGINNING 1 WK PRIOR TO CARCINOGEN TREATMENT (STUDY DURATION: 98 WK), Route [Inhibitor]: ORAL, Species: RAT, Strain/Sex: F344/MALE, Target Tissue: Type of Lesion: NASAL CAVITY: TUMOR, Dose [Carcinogen]: 1.5 MG/KG BW 3/WK FOR 20 WK, Promoter: NONE USED) of the same compound?
The value was 28/36 (78%), 27/36 (75%), 4%, not significant.

What about the “tumour outcome (control, treated, inhibition, significance)” value (Carcinogen: 4-(METHYLNITROSAMINO-1-(3-PYRIDYL)-1-BUTANONE, 64091-91-4, Dose [Inhibitor]: O, 0.2 UMOL 1/D FOR 4 D ADMINISTERED PRIOR TO CARCINOGEN TREATMENT (STUDY DURATION: 116 D), Route [Inhibitor]: GAVAGE, Species: MOUSE, Strain/Sex: STRAIN A, Target Tissue: Type of Lesion: LUNG: ADENOMA, Dose [Carcinogen]: 10 UMOL ONCE 2 HR AFTER FINAL DOSE OF INHIBITOR, Promoter: NONE USED) of the same compound?
Its value is 100%, 70%, 30%, p<0.05.

And the outcome (Carcinogen: BENZO[A]PYRENE, 50-32-8, Dose [Inhibitor]: 0, 5 UMOL IN ACETONE 4 HR PRIOR TO CARCINOGEN DOSE (STUDY DURATION: 20 WK), Route [Inhibitor]: DERMAL, Species: MOUSE, Strain/Sex: STRAIN-A/FEMALE, Target Tissue: Type of Lesion: SKIN: TUMOR, Dose [Carcinogen]: 0.1 UMOL IN ACETONE ONCE, Promoter: 12-O-TETRADECANOYLPHORBOL-13-ACETATE, 16561-29-8)?
The outcome was 70%, 90%, 29%, not significant at 15 wk; 95%, 95%, 0%, not significant at 20 wk.

And the “tumour outcome (control, treated, inhibition, significance)” value (Carcinogen: N-BUTYL-N(4-HYDROXYBUTYL)NITROSAMINE (3817-11-6), Dose [Inhibitor]: 0.5 UMOL/G IN DIET BEGINNING 1 WK BEFORE CARCINOGEN EXPOSURE (STUDY DURATION: 16 WK), Route [Inhibitor]: ORAL, Species: RAT, Strain/Sex: WISTAR/MALE, Target Tissue: Type of Lesion: URINARY BLADDER: PAPILLOMA, Dose [Carcinogen]: 0.025% IN DRINKING WATER FOR 15 WK, Promoter: NONE USED)?
The value was 38/40 (95%), 24/30 (80%), 16%, not significant.

What about the “tumour outcome (control, treated, inhibition, significance)” value (Carcinogen: N-NITROSOMETHYLBENZYLAMINE [937-40-6], Dose [Inhibitor]: 0, 1 MMOL/KG DIET IMMEDIATELY POST LAST CARCINOGEN DOSE (STUDY DURATION: 25 WK), Route [Inhibitor]: ORAL, Species: RAT, Strain/Sex: F344/MALE, Target Tissue: Type of Lesion: ESOPHAGUS: TUMOR, Dose [Carcinogen]: 0.5 MG/KG BW IN 20% DMSO 3 TIMES/WK FOR 5 WK (STUDY DURATION: 25 WK), Promoter: NONE) of the same compound?
The value was 100%, 100%, 0%, not significant.

What about the “tumour outcome (control, treated, inhibition, significance)” value (Carcinogen: N-NITROSOMETHYLBENZYLAMINE [937-40-6], Dose [Inhibitor]: 0, 2.5 MMOL/KG DIET IMMEDIATELY POST LAST CARCINOGEN DOSE (STUDY DURATION: 25 WK), Route [Inhibitor]: ORAL, Species: RAT, Strain/Sex: F344/MALE, Target Tissue: Type of Lesion: ESOPHAGUS: TUMOR, Dose [Carcinogen]: 0.5 MG/KG BW IN 20% DMSO 3 TIMES/WK FOR 5 WK (STUDY DURATION: 25 WK), Promoter: NONE) of the same compound?
The value was 100%, 100%, 0%, not significant.
